For 19 compounds, Kd, IC50 and 2-AG accumulation, percent of vehicle control results are on record in US8513423B2 (Janssen Pharmaceutica, NV, priority 2010, dated 2013).

One test has as its target T1, mutant MGL (Homo sapiens, UniProt Q99685, L169S/L176S).
T1 construct: purified mutant MGL (mut-MGLL 11-313 L179S L186S)
T1 sequence (Q99685 1-303 L169S/L176S): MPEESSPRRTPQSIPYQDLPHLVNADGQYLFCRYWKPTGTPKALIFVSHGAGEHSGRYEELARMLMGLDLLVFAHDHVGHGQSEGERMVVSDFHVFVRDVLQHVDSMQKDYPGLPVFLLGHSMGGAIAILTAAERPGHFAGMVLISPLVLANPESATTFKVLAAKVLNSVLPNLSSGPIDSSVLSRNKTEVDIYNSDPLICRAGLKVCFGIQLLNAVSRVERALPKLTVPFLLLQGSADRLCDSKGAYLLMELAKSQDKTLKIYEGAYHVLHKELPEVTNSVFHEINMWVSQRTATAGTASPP
In words: MGL ThermoFluor assay - mutant. It counts as binding. A digest of the protocol:
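Thermal shift binding with 0.07 mg/ml L169S/L176S MGL, 100 μM 1,8-ANS, 200 mM NaCl, 0.001% Tween-20, 50 mM PIPES pH 7.0. Heated 40–90 °C at 1 °C/min, fluorescence (em 500 nm) tracked to give Tm; Kd fitted from 11-point concentration–Tm response, qKd when stocks quantified by qNMR.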
(In general: DSF heats the sample and reads unfolding from a dye or from intrinsic fluorescence.)

Test [1] addresses T2, purified wild type MGL (wt-MGLL 6H-11-313) (Homo sapiens, UniProt Q99685).
T2 construct: purified wild type MGL (wt-MGLL 6H-11-313)
T2 sequence (Q99685 1-303): T1 sequence (Q99685 1-303 L169S/L176S) with S169L, S176L
In words: MGL enzyme activity assay (4MU-B cleavage), wild type MGL. It counts as biochemical. Conditions: 10 μM 4MU-B, 5 nM enzyme, 37° C., read-out: MGL wild type inh IC50. A digest of the protocol:
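Enzyme (5 nM final) cleaved 4MU-B (10 μM final) in 20 mM PIPES pH 7.0 with 150 mM NaCl and 0.001% Tween 20. Compounds were tested at 17 to 0.0003 μM final. Fluorescence (ex 335/em 440 nm) was monitored at 37° C for 5 min, and IC50 was fitted from fractional activity versus inhibitor concentration.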

The target of another test is T3, MGL (Rattus norvegicus, UniProt Q8R431).
T3 construct: one g rat brain was homogenized; from tissue; host or cells: rat brain homogenate
T3 sequence (Q8R431 1-303): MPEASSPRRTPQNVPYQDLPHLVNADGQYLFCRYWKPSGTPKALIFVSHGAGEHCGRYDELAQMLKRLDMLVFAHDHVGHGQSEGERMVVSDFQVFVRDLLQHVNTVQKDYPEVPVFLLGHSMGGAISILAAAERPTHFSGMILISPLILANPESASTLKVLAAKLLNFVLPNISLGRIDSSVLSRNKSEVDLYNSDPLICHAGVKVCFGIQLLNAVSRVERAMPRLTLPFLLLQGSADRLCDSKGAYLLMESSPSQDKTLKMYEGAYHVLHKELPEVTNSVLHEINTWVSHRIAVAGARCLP
As to the kind of experiment: 2-AG accumulation assay in rat brain homogenate. The following applies: compound @1 μM, read-out: Rat Brain 2AG % VehCntrl (%) @1 μM. Format: biochemical. On the procedure: After a 15-min incubation time at 37° C., CaCl2 (final concentration=10 mM) was added and then incubated for 15 min at 37° C. in a total volume of 5 mL. The reactions were stopped with 6 mL organic solvent extraction solution of 2:1 chloroform/methanol. Accumulated 2-AG in the organic phase was measured by a HPLC/MS method, according to the following equation: percent vehicle=(2-AG accumulation in the presence of compound/2-AG accumulation in vehicle)×100.

Where [2] appears, read: compound concentration measured by qNMR, read-out: MGL mutant ThermoFluor qKd (using qNMR conc.).
Setting [3] is: 0.07 mg/ml mutant MGL, pH=7.0, read-out: MGL mutant ThermoFluor Kd.

Substitutions are numbered along the chain they refer to. Like-named read-outs stand apart in the source and are kept apart here.

`O=C(c1ccc2c(ccn2-c2ccc(C(F)(F)F)cc2)c1)N1CC(C2CCN(C(=O)c3ccc[nH]3)CC2)C1` [Cpd 43, 5-({3-[1-(1H-Pyrrol-2-ylcarbonyl)piperidin-4-yl]azetidin-1-yl}carbonyl)-1-[4-(trifluoromethyl)phenyl]-1H-indole]: the Kd at mutant MGL (setting [2]) was 26.4 nM. Also, the IC50 (commonly the concentration at which inhibition is half-maximal) in test [1] was less than 5 nM. The 2-AG accumulation, percent of vehicle control at 1 µM on MGL came out at 611%.
`O=C(c1ccc2c(ccn2-c2ccc(F)c(F)c2)c1)N1CC(C2CCN(C(=O)c3ccc[nH]3)CC2)C1` [Cpd 44]: the Kd on mutant MGL (setting [2]) amounted to 21.3 nM. Moreover, the IC50 in test [1] was less than 5 nM. At MGL, the 2-AG accumulation, percent of vehicle control at 1 µM was found to be 107%.
The like results for `O=C(c1nccs1)N1CC(C2CCN(C(=O)c3ccc(-c4ccccc4)cc3F)CC2)C1` [Cpd 45] were, in that order, 12.2 nM, less than 5 nM and 385%.
In the case of `O=C(c1ccc[nH]1)N1CC(C2CCN(C(=O)c3ccc(-c4ccccc4)cc3F)CC2)C1` [Cpd 47, 1-[(3-Fluorobiphenyl-4-yl)carbonyl]-4-[1-(1H-pyrrol-2-ylcarbonyl)azetidin-3-yl]piperidine], the figures for the Kd at mutant MGL (setting [3]) and at mutant MGL (setting [2]) were 76.7 nM and 33.3 nM, respectively. In addition, the IC50 in test [1] amounted to 37.9 nM. The 2-AG accumulation, percent of vehicle control at 1 µM on MGL amounted to 153%.
Take `O=C(c1ccc(-c2cccc(C(F)(F)F)c2)cc1)N1CCC(C2CN(C(=O)c3cscn3)C2)CC1` [Cpd 49, 4-[1-(1,3-Thiazol-4-ylcarbonyl)azetidin-3-yl]-1-{[3′-(trifluoromethyl)biphenyl-4-yl]carbonyl}piperidine]: the Kd on mutant MGL (setting [2]) came to 1 nM. Further, in test [1], the IC50 was determined as 6 nM. Further, the 2-AG accumulation, percent of vehicle control at 1 µM at MGL was determined as 908%.
In the case of `O=C(c1ccc(-c2cccc(C(F)(F)F)c2)cc1)N1CCC(C2CN(C(=O)c3ccc[nH]3)C2)CC1` [Cpd 50, 4-[1-(1H-Pyrrol-2-ylcarbonyl)azetidin-3-yl]-1-{[3′-(trifluoromethyl)biphenyl-4-yl]carbonyl}piperidine], the Kd on mutant MGL (setting [2]) was 1 nM. Also, the IC50 in test [1] is less than 5 nM. Also, on MGL, the 2-AG accumulation, percent of vehicle control at 1 µM amounted to 561%.
Regarding `O=C(c1cccc(-c2cccc(F)c2)c1)N1CCC(C2CN(C(=O)c3nccs3)C2)CC1` [Cpd 51, 1-[(3′-Fluorobiphenyl-3-yl)carbonyl]-4-[1-(1,3-thiazol-2-ylcarbonyl)azetidin-3-yl]piperidine], the Kd at mutant MGL (setting [2]) was 18 nM. Moreover, in test [1], the concentration for half-maximal inhibition (IC50) was less than 5 nM. Moreover, the 2-AG accumulation, percent of vehicle control at 1 µM on MGL came out at 266%.
Take `O=C(c1cccc(-c2cccc(F)c2)c1)N1CCC(C2CN(C(=O)c3cscn3)C2)CC1` [Cpd 52, 1-[(3′-Fluorobiphenyl-3-yl)carbonyl]-4-[1-(1,3-thiazol-4-ylcarbonyl)azetidin-3-yl]piperidine]: the results for the Kd on mutant MGL (setting [3]) and on mutant MGL (setting [2]) were 30.4 nM and 32.2 nM, respectively. The IC50 in test [1] stood at 71.5 nM. Moreover, the 2-AG accumulation, percent of vehicle control at 1 µM on MGL stood at 193%.
For `O=C(c1cccc(-c2cccc(F)c2)c1)N1CCC(C2CN(C(=O)c3ccc[nH]3)C2)CC1` [Cpd 53, 1-[(3′-Fluorobiphenyl-3-yl)carbonyl]-4-[1-(1H-pyrrol-2-ylcarbonyl)azetidin-3-yl]piperidine], the Kd at mutant MGL (setting [2]) is 33.3 nM. Moreover, the IC50 in test [1] is 46.6 nM. Besides, the 2-AG accumulation, percent of vehicle control at 1 µM on MGL is 225%.
For `O=C(c1ccc(-c2ccc(C(F)(F)F)s2)cc1)N1CCC(C2CN(C(=O)c3nccs3)C2)CC1` [Cpd 54, 4-[1-(1,3-Thiazol-2-ylcarbonyl)azetidin-3-yl]-1-({4-[5-(trifluoromethyl)thiophen-2-yl]phenyl}carbonyl)piperidine] the same measures were 1.8 nM, less than 5 nM and 736%.
The like results for `O=C(c1ccc(-c2ccc(C(F)(F)F)s2)cc1)N1CCC(C2CN(C(=O)c3cscn3)C2)CC1` [Cpd 55, 4-[1-(1,3-Thiazol-4-ylcarbonyl)azetidin-3-yl]-1-({4-[5-(trifluoromethyl)thiophen-2-yl]phenyl}carbonyl)piperidine] were, in that order, 2 nM, 13 nM and 733%.
With `O=C(c1ccc(-c2ccc(C(F)(F)F)s2)cc1)N1CCC(C2CN(C(=O)c3ccc[nH]3)C2)CC1` [Cpd 56, 4-[1-(1H-Pyrrol-2-ylcarbonyl)azetidin-3-yl]-1-({4-[5-(trifluoromethyl)thiophen-2-yl]phenyl}carbonyl)piperidine], the Kd on mutant MGL (setting [3]) is 5.5 nM; on mutant MGL (setting [2]), 3.3 nM. Moreover, the IC50 in test [1] is less than 5 nM. Also, the 2-AG accumulation, percent of vehicle control at 1 µM on MGL turned out to be 285%.
In the case of `O=C(c1ccc(Cc2cccc(C(F)(F)F)c2)cc1)N1CCC(C2CN(C(=O)c3nccs3)C2)CC1` [Cpd 57, 4-[1-(1,3-Thiazol-2-ylcarbonyl)azetidin-3-yl]-1-({4-[3-(trifluoromethyl)benzyl]phenyl}carbonyl)piperidine], at mutant MGL (setting [2]), the Kd is 5.9 nM. The concentration for half-maximal inhibition (IC50) in test [1] came out at 17 nM. In addition, the 2-AG accumulation, percent of vehicle control at 1 µM on MGL worked out at 869%.
For `O=C(c1ccc(Cc2cccc(C(F)(F)F)c2)cc1)N1CCC(C2CN(C(=O)c3cscn3)C2)CC1` [Cpd 58, 4-[1-(1,3-Thiazol-4-ylcarbonyl)azetidin-3-yl]-1-({4-[3-(trifluoromethyl)benzyl]phenyl}carbonyl)piperidine] the same measures were 6.9 nM, less than 5 nM and 370%.
Turning to `O=C(c1ccc(Cc2cccc(C(F)(F)F)c2)cc1)N1CCC(C2CN(C(=O)c3ccc[nH]3)C2)CC1` [Cpd 59, 4-[1-(1H-Pyrrol-2-ylcarbonyl)azetidin-3-yl]-1-({4-[3-(trifluoromethyl)benzyl]phenyl}carbonyl)piperidine], the Kd on mutant MGL (setting [3]) came out at 20.2 nM; at mutant MGL (setting [2]), 9.4 nM. Also, the half-maximal inhibitory concentration (IC50) in test [1] came out at 11 nM. For the same compound, at MGL, the 2-AG accumulation, percent of vehicle control at 1 µM turned out to be 346%.
For `Cc1c(C(=O)N2CCC(C3CN(C(=O)c4nccs4)C3)CC2)sc2cc(C(F)(F)F)ccc12` [Cpd 60, 1-{[3-Methyl-6-(trifluoromethyl)-1-benzothiophen-2-yl]carbonyl}-4-[1-(1,3-thiazol-2-ylcarbonyl)azetidin-3-yl]piperidine] the same measures were 0.8 nM, 0.5 nM, 10 nM and 508%.
The like results for `Cc1c(C(=O)N2CCC(C3CN(C(=O)c4ccc[nH]4)C3)CC2)sc2cc(C(F)(F)F)ccc12` [Cpd 62] were, in that order, 1.3 nM, 0.6 nM, less than 5 nM and 422%.
Take `O=C(c1ccc(Cc2ccc(C(F)(F)F)cc2)cc1)N1CCC(C2CN(C(=O)c3nccs3)C2)CC1` [Cpd 63, 4-[1-(1,3-Thiazol-2-ylcarbonyl)azetidin-3-yl]-1-({4-[4-(trifluoromethyl)benzyl]phenyl}carbonyl)piperidine]: at mutant MGL (setting [2]), the Kd turned out to be 17.4 nM. In test [1], the IC50 is less than 5 nM. Further, the 2-AG accumulation, percent of vehicle control at 1 µM on MGL was 435%.
On to `O=C(c1ccc(Cc2ccc(C(F)(F)F)cc2)cc1)N1CCC(C2CN(C(=O)c3cscn3)C2)CC1` [Cpd 64, 4-[1-(1,3-Thiazol-4-ylcarbonyl)azetidin-3-yl]-1-({4-[4-(trifluoromethyl)benzyl]phenyl}carbonyl)piperidine], for which, on mutant MGL (setting [2]), the Kd came out at 18.9 nM. Besides, the 50% inhibitory concentration (IC50) in test [1] was less than 5 nM. For the same compound, on MGL, the 2-AG accumulation, percent of vehicle control at 1 µM amounted to 383%.
